The test system of experiment [1] is L. monocytogenes. Put plainly: growth of L. monocytogenes after treatment with compounds of the matrix lysis protocol (Example 1). The format is cell-based. As to conditions: incubated 2 h at 45 °C in the compound, then plated. As to the method: L. monocytogenes EGDe was used as a DNA quantification standard for real-time PCR and for artificial contamination of food samples. The bacteria were maintained at -80° C. using the MicroBank technology (Pro-Lab Diagnostics, Canada). Listeria were grown in tryptone soy broth with 0.6% ([…]; Oxoid, UK) at 37° C. over night. For artificial contamination of food and viability staining, one milliliter of the over night culture was transferred to one milliliter of fresh medium and incubated at 37° C. for three hours. Plate count method and tryptone soy agar plates supplemented with 0.6% (w/v) yeast extract (TSA-Y; Oxoid, UK) were used for quantification of the pure cultures of L. monocytogenes. The agar plates were incubated at 37° C. for 24 hours. For determination of the survival rate of L. monocytogenes treated with different chemical compounds of the matrix lysis buffer system, 100 μl of an overnight culture of L. monocytogenes was pelleted at 8,000×g for 5 min, resuspended in the chemical compound of choice, and incubated for 2 h at 45° C. and 300 rpm on an Eppendorf shaker (Eppendorf, Germany). Afterwards the bacterial cells were washed twice in 1×PBS at 5,000×g and resuspended in 120 μl 1×PBS. One-hundred μl of the suspension was plated on […] agar plates (Biokar, Beauvais, France). Incubation was performed 48 h at 37° C.

For experiment [2], the system named is prfA gene of L. monocytogenes (real-time PCR). Put plainly: inhibitory effects of detergents on real-time PCR. The class given is biochemical. As for the experimental part: For experiments analysing the effects of food matrices and detergents contained in the matrix lysis buffer on real-time PCR, food matrices were mixed with equal amounts of ddH2O, stomachered for 3 minutes, diluted in a 10-fold dilution series (10^−1, 10^−2 and 10^−3) and 5 μl directly subjected to the real time PCR samples. An aliquot was cooked 15 min at 100° C. for comparison prior to subjection of 5 μl to real-time PCR. Detergents were diluted in 2-fold dilution series (0.4 M-0.05 M Urea and 0.8%-0.005% SDS) and 5 μl were subjected to the real-time PCR samples.
Real-time PCR was performed in an Mx3000p real-time PCR thermocycler (Stratagene, USA). The 25 μl volume contained 20 mM Tris-HCl, 50 mM KCl, 3.5 mM MgCl2. 500 nM of each primer, 250 nM of each probe, 200 μM (each) of dATP, dTTP, dGTP and dCTP, 1.5 U of Platinum Taq DNA polymerase (Invitrogen, Austria), 25 copies of the IAC and […]. Amplification following initial denaturation at 94° C. for 2 min was performed in 45 cycles, at each 94° C. for 15 s and 64° C. for 1 minute.
For orientation: Quantitative PCR measures a nucleic acid by following its amplification.

In another experiment the test system is Gram negative bacteria. Put plainly: recovery of Gram negative bacteria in matrix lysis. The class given is cell-based. As to conditions: as detergent of the lysis buffer. As for the experimental part: Combinations of five different detergents (Tween 20®, Tween 80®, Triton X-100®; SDS, and Lutensol AO-7), three enzymes (Protease, alpha-amylase and cellulase) and a sucrose buffer (0.25 M sucrose, 1 mM EDTA and 0.05 M Tris, pH 7.6) were compared with respect of their ability to dissolve food matrices (salmon, chicken meat, diary products, ice cream, blood, starch rich foodstuffs, egg and milk) and their effect on the cellular appearance of the bacterial cells. All chemicals used (with the exception of SDS, Sigma-Aldrich, Germany; Lutensol AO-7, BASF, Netherland and Savinase, Novozymes, Denmark) were purchased at Merck (Germany). The matrix lysis protocol is described below.
Matrix lysis was generally performed as described in example 1. Processing meat, fish, chicken and blood or when Gram positive bacteria were targeted, buffer system I (8 M urea, 1% SDS, and 1×PBS) was used. Buffer system II (8 M urea, 1% Lutensol AO-7 and 1×PBS) was used if Gram negative bacteria were targeted and for all other foodstuffs used (Milk, diary products, ice cream, and egg).

Experiment [3] concerns S. thyphimurium. Put plainly: BacLight viability staining after exposure to chemical compounds. The format is cell-based. As to the method:
(§1) For assessment of the survival rate of the bacteria treated with different chemical compounds of the matrix lysis buffer system, 100 μl of an overnight culture was pelleted at 8,000×g for 5 min, re-suspended in 1 ml of the chemical compound of choice, […] shaker (Eppendorf, Germany). The bacterial cells were then washed twice in 1×PBS at 5,000×g and re-suspended in 120 μl 1×PBS. One-hundred it of the suspension was plated onto TSB-Y agar plates (Oxoid). Incubation was performed for 48 h at 37° C. Additionally the Live/Dead® BacLight™ Bacterial Viability Kit (Molecular Probes, USA) was used to examine the condition of the bacteria after the chemical treatments.
(§2) Viability staining was performed using the Live/Dead® BacLight™ Bacterial Viability Kit (Molecular Probes) as prescribed by the manufacturer. Ten fields per filter were analysed, and two filters were prepared for each sample.

For experiment [4], the system named is B. cereus. Described as above. Further details: key: red: Red colour indicates dead cells; c.r.: Reduced cell count; green: Green colour indicates living cells. The class given is cell-based. As for the experimental part:
as §1, §2

Experiment [5] deals with E. coli. The description is as above. Further details: key: red: Red colour indicates dead cells; c.r.: Reduced cell count; green: Green colour indicates living cells. The format is cell-based. As to the method:
as §1, §2

For experiment [6], the system named is L. monocytogenes. The description is as above. The format is cell-based. Also on record: key: red: Red colour indicates dead cells; c.r.: Reduced cell count; green: Green colour indicates living cells. As for the experimental part:
as §1, §2

The test system of experiment [7] is S. aureus. Described as above. The class given is cell-based. Also on record: key: red: Red colour indicates dead cells; c.r.: Reduced cell count; green: Green colour indicates living cells. As to the method: as §1, §2
Experiment [8] concerns B. cereus. Put plainly: plate growth after exposure to chemical compounds. The class given is cell-based. As for the experimental part:
as §1

The test system of experiment [9] is E. coli. In words: plate growth after exposure to chemical compounds. The format is cell-based. As for the experimental part: as §1
For experiment [10], the system named is L. monocytogenes. In words: plate growth after exposure to chemical compounds. The format is cell-based. As for the experimental part: as §1
Experiment [11] relates to S. aureus. In words: plate growth after exposure to chemical compounds. The class given is cell-based. As to the method: as §1
Experiment [12] concerns S. thyphimurium. In words: plate growth after exposure to chemical compounds. The class given is cell-based. As to the method:
as §1

On to `CCCCCCCCCCCCOS(=O)(=O)[O-].[Na+]` [1% SDS, sodium dodecyl sulfate], for which the “growth of L. monocytogenes on TSY agar after treatment” value in the experiment with L. monocytogenes [1] was “Complete inhibition of growth”. For the same compound, the “inhibitory effect on real-time PCR” value in [2] (SDS 0.8% to 0.005%, 15.5 and 1,550 copies/PCR) is listed as “no amplification”. Moreover, the “recovery of Gram negative bacteria” value with Gram negative bacteria is listed as “decreasing the recovery”.
Take `NC(N)=O` [8 M Urea, urea]: the “S. thyphimurium BacLight” value is on record as “c.r.^b/red” in the experiment on S. thyphimurium [3] (37 °C), “c.r./red” in the experiment on S. thyphimurium [3] (42 °C) and “c.r./red” with S. thyphimurium [3] (45 °C). Further, the “B. cereus BacLight” value in the experiment on B. cereus [4] (37 °C), in the experiment on B. cereus [4] (42 °C) and in the experiment with B. cereus [4] (45 °C) was “green” in each case. The “E. coli BacLight” value is on record as “red^a” in the experiment on E. coli [5] (37 °C), “c.r./red” with E. coli [5] (42 °C) and “c.r./red” in the experiment on E. coli [5] (45 °C). For the same compound, the “L. monocytogenes BacLight” value with L. monocytogenes [6] (37 °C) is reported as “green^c”; in the experiment on L. monocytogenes [6] (42 °C) it was “green”; in the experiment on L. monocytogenes [6] (45 °C), “green”. Also, the “S. aureus BacLight” value in the experiment with S. aureus [7] (37 °C), in the experiment with S. aureus [7] (42 °C) and in the experiment with S. aureus [7] (45 °C) was “green” throughout. In addition, the “B. cereus Plate growth” value in the experiment with B. cereus [8] (37 °C), with B. cereus [8] (42 °C) and with B. cereus [8] (45 °C) was “pos” each time. Moreover, the “E. coli Plate growth” value in the experiment on E. coli [9] (37 °C) and with E. coli [9] (42 °C) was “neg” throughout. The “L. monocytogenes Plate growth” value in the experiment with L. monocytogenes [10] (37 °C), in the experiment with L. monocytogenes [10] (42 °C) and with L. monocytogenes [10] (45 °C) was “pos” throughout. Further, the “S. aureus Plate growth” value in the experiment on S. aureus [11] (37 °C), with S. aureus [11] (42 °C) and with S. aureus [11] (45 °C) was “pos” in each case. The “S. thyphimurium Plate growth” value in the experiment on S. thyphimurium [12] (37 °C), with S. thyphimurium [12] (42 °C) and with S. thyphimurium [12] (45 °C) was “neg” throughout. For the same compound, in the experiment with L. monocytogenes [1], the “growth of L. monocytogenes on TSY agar after treatment” value is recorded as “able to grow”. In addition, the “inhibitory effect on real-time PCR” value is given as “total inhibition” in experiment [2] (urea 0.4 M and 0.2 M, 15.5 copies of the target); “total inhibition” in experiment [2] (urea 0.4 M, 1,550 copies of the target).

(Values after patent US9328326B2, “Method for isolating cells” (MERCK PATENT GMBH, priority 2006, dated 2016).)
